Paper PMC4551390 (Leukemia, 2015)

Tests used:
[1] = system: relapsed and refractory CLL patients; experiment: Phase I dose escalation: clinical response and PFS; assay type: in vivo, human
[2] = system: tumor FDG uptake (SUV); experiment: FDG PET/CT tumor metabolic response; assay type: in vivo, human; details: Baseline vs Cycle 1 Day 22; 29 subjects scanned, 4 not evaluable
[3] = system: CLL cells; details: pre-clinical; cited from earlier work
[4] = Plasma pharmacokinetics after 2-hr IV infusion; details: for AUC / Cmax / half-life: human, plasma, intravenous; for AUC / Cmax: Mean
[5] = system: MCL-1; experiment: Western blot protein expression in patient samples; assay type: in vivo, human; details: 2 and 4 hours of treatment vs pretreatment, P<0.0001
[6] = system: T-cells; details: pre-clinical; cited from earlier work
[7] = system: bcl-2; experiment: Western blot protein expression in patient samples; assay type: in vivo, human; details: 2 and 4 hours of treatment vs pretreatment
[8] = system: XIAP; experiment: Western blot protein expression in patient samples; assay type: in vivo, human; details: 2 and 4 hours of treatment vs pretreatment

SMILES: CCc1cnn2c(NCc3ccc[n+]([O-])c3)cc(N3CCCC[C@H]3CCO)nc12 [Dinaciclib]
- No (%) of Responders ([1]; 14 mg/mg/m^2 dosing during treatment, 35 pts): 22 (63) No (%)
- response rate ([1]; 21 patients without del(17)(p13.1)): 57%
- response rate ([1]; 25 patients with del(17)(p13.1)): 56%
- 95% confidence interval of response rate ([1]; 35 patients at phase 2 dose of 14 mg/m^2): 47–79%
- No (%) of Responders ([1]; Total, 52 pts): 28 (54) No (%)
- overall response to therapy ([1]; all 52 patients, IWCLL 2008 partial responses): 54%
- complete responses ([1]; all patients): no complete responses
- patients off therapy for progression of disease ([1]; all patients): 27%
- median progression free survival ([1]; all patients, Kaplan-Meier estimate): 481 days
- median time to response (range) ([1]; all responders): 85 (27–244) days
- response rate ([1]; bulky disease): 52%
- No (%) of Responders ([1]; dose level 5 mg/m^2, 4 pts): 1 (25) No (%)
- No (%) of Responders ([1]; dose level 10 mg/m^2, 3 pts): 2 (67) No (%)
- No (%) of Responders ([1]; dose level 14 mg/m^2, 16 pts): 11 (69) No (%)
- No (%) of Responders ([1]; dose level 17 mg/m^2, 4 pts): 1 (25) No (%)
- No (%) of Responders ([1]; dose level 10→14 mg/m^2, 6 pts): 4 (67) No (%)
- response rate ([1]; non-bulky (< 5 cm nodes) disease): 71%
- response rate ([1]; prior flavopiridol exposure): 38%
- response rate ([1]; recommended phase II dose (14 mg/m^2) at the final dose, 35 patients): 63%
- PET non-responders [2]: 10
- PET responders (30% or more decrease in SUV) [2]: 15
- therapeutic efficacy against CLL cells as compared to flavopiridol [3]: improved therapeutic efficacy
- CL, Mean ([4]; Day 1, 5 mg/m^2): 26.2 L/hr/m2
- Vd, Mean ([4]; Day 1, 5 mg/m^2): 92.8 L/m2
- CL, Mean ([4]; Day 1, 7 mg/m^2): 17.3 L/hr/m2
- Vd, Mean ([4]; Day 1, 7 mg/m^2): 66.2 L/m2
- CL, Mean ([4]; Day 1, 10 mg/m^2): 19.9 L/hr/m2
- Vd, Mean ([4]; Day 1, 10 mg/m^2): 81.8 L/m2
- CL, Mean ([4]; Day 1, 14 mg/m^2): 18.1 L/hr/m2
- Vd, Mean ([4]; Day 1, 14 mg/m^2): 74.4 L/m2
- CL, Mean ([4]; Day 1, 17 mg/m^2): 13.2 L/hr/m2
- Vd, Mean ([4]; Day 1, 17 mg/m^2): 55.9 L/m2
- CL, Mean ([4]; Day 15, 5 mg/m^2): 16.1 L/hr/m2
- Vd, Mean ([4]; Day 15, 5 mg/m^2): 60.3 L/m2
- CL, Mean ([4]; Day 15, 7 mg/m^2): 23.8 L/hr/m2
- Vd, Mean ([4]; Day 15, 7 mg/m^2): 79.5 L/m2
- CL, Mean ([4]; Day 15, 10 mg/m^2): 16.8 L/hr/m2
- Vd, Mean ([4]; Day 15, 10 mg/m^2): 68.4 L/m2
- CL, Mean ([4]; Day 15, 14 mg/m^2): 17 L/hr/m2
- Vd, Mean ([4]; Day 15, 14 mg/m^2): 71.4 L/m2
- CL, Mean ([4]; Day 15, 17 mg/m^2): 13.8 L/hr/m2
- Vd, Mean ([4]; Day 15, 17 mg/m^2): 58.9 L/m2
- increases in exposure (Cmax and AUC) ([4]; at 17 mg/m^2): greater than dose-proportional
- AUC ([4]; 5 mg/m2, AUC(I), Day 1, 5 mg/m^2): 191 ng·h/mL
- AUC ([4]; 5 mg/m2, AUC(I), Day 15, 5 mg/m^2): 310 ng·h/mL
- Cmax ([4]; 5 mg/m2, Cmax, Day 1, 5 mg/m^2): 95.4 ng/mL
- Cmax ([4]; 5 mg/m2, Cmax, Day 15, 5 mg/m^2): 150 ng/mL
- half-life ([4]; 5 mg/m2, T1/2, Mean, Day 1, 5 mg/m^2): 2.45 h
- half-life ([4]; 5 mg/m2, T1/2, Mean, Day 15, 5 mg/m^2): 2.5 h
- AUC ([4]; 7 mg/m2, AUC(I), Day 1, 7 mg/m^2): 403 ng·h/mL
- AUC ([4]; 7 mg/m2, AUC(I), Day 15, 7 mg/m^2): 294 ng·h/mL
- Cmax ([4]; 7 mg/m2, Cmax, Day 15, 7 mg/m^2): 157 ng/mL
- half-life ([4]; 7 mg/m2, T1/2, Mean, Day 15, 7 mg/m^2): 2.31 h
- AUC ([4]; 10 mg/m2, AUC(I), Day 1, 10 mg/m^2): 501 ng·h/mL
- AUC ([4]; 10 mg/m2, AUC(I), Day 15, 10 mg/m^2): 592 ng·h/mL
- Cmax ([4]; 10 mg/m2, Cmax, Day 1, 10 mg/m^2): 277 ng/mL
- Cmax ([4]; 10 mg/m2, Cmax, Day 15, 10 mg/m^2): 299 ng/mL
- half-life ([4]; 10 mg/m2, T1/2, Mean, Day 1, 10 mg/m^2): 2.85 h
- half-life ([4]; 10 mg/m2, T1/2, Mean, Day 15, 10 mg/m^2): 2.82 h
- AUC ([4]; 14 mg/m2, AUC(I), Day 1, 14 mg/m^2): 775 ng·h/mL
- AUC ([4]; 14 mg/m2, AUC(I), Day 15, 14 mg/m^2): 827 ng·h/mL
- Cmax ([4]; 14 mg/m2, Cmax, Day 1, 14 mg/m^2): 404 ng/mL
- Cmax ([4]; 14 mg/m2, Cmax, Day 15, 14 mg/m^2): 428 ng/mL
- half-life ([4]; 14 mg/m2, T1/2, Mean, Day 1, 14 mg/m^2): 2.85 h
- AUC ([4]; 17 mg/m2, AUC(I), Day 1, 17 mg/m^2): 1290 ng·h/mL
- AUC ([4]; 17 mg/m2, AUC(I), Day 15, 17 mg/m^2): 1260 ng·h/mL
- Cmax ([4]; 17 mg/m2, Cmax, Day 1, 17 mg/m^2): 624 ng/mL
- Cmax ([4]; 17 mg/m2, Cmax, Day 15, 17 mg/m^2): 634 ng/mL
- half-life ([4]; 17 mg/m2, T1/2, Mean, Day 15, 17 mg/m^2): 2.95 h
- accumulation in plasma ([4]; weekly 2-hour IV infusion): did not accumulate
- MCL-1 protein expression [5]: significantly reduced expression
- cytotoxicity to T-cells [6]: not cytotoxic
- BCL2 protein level [7]: no significant change
- XIAP protein level [8]: no significant change
